Experimental data from patent publication US20030087844A1, “Ribavirin syrup formulations” (SCHERING CORPORATION, priority 2001, published 2003).

Assay: Storage stability testing of the syrup at ICH conditions, HPLC assay of ribavirin and degradation products
Type: physicochemical
Text: The stability of a syrup formulation of the present invention was compared to conventional liquid formulations that contain ribavirin that are marketed by ICN. Degradation of syrup formulations containing ribavirin is observed during storage stability testing, as is evidenced by declining concentrations of the active ingredient and a concomitant formation of degradates. The most frequent degradation product that has been identified is the carboxylic acid product of ribavirin. Based upon these tests, it is believed that the syrup formulations of the present invention have a shelf life of greater than two years.
This analysis was performed via HPLC methods that are known to one of skill in the art. Stability data was also performed on the formulation of the present invention at 18 months after formulation, and measured by HPLC techniques as known by one of skill in the art as set forth in Table 2 below.
Only results that exceed the limit of quantitation (LOQ) were included in the attached tables. The LOQ of each degradation product is 0.05%. Synthesis-related impurities of ribavirin, the α-anomer and 5′-acetylribavirin, were not degradation products and are not monitored in the drug product. Each degradation product result was rounded to one significant figure according to the rounding convention described in the USP. The results for total degradation products that were derived from the sum of individual degradation products that contain one more significant figure than those shown in the data tables and then rounded to one decimal place.

Measured: ribavirin degradation after storage

NC(=O)c1ncn([C@@H]2O[C@H](CO)[C@@H](O)[C@H]2O)n1 [Ribavirin, 1β-D ribofuranosyl-1H-1,2,4 triazole 3-carboxamide]
did not degrade significantly: 25° C./60% RH, up to 12 months | 30° C./60% RH, up to 12 months | ICH accelerated condition 40° C./75% RH, up to 6 months
